Assay results reported in patent US7300940B2, “Integrin α-v β-3 antagonists for use in imaging and therapy” (The United States of America, as represented by the …, priority 2004, dated 2007).
Where a name gives a salt, the structure may show the parent alone.

Target: T1, Integrin protein αvβ3 (Homo sapiens, UniProt P05106+P06756)
T1 construct: purchased Chemicon International, Inc., Temecula, Calif., USA
Test: Receptor/ligand challenge assay of biotinylated vitronectin binding to plate-coated integrin αvβ3 (chemiluminescence)
Settings: for IC50: competition with biotinylated vitronectin for coated αvβ3, 3 hours at room temperature, quadruplicate, 0.00316-1000 nM; for IC50 Ratio Relative to Hood et al.: ratio of IC50 versus the Hood et al. antagonist in the same assay
Description: Receptor/Ligand Challenge Assay of Vitronectin to Integrin αvβ3 Receptor Antagonists in the Presence of Test Compounds
The title compounds of Examples 1 through 8 were tested for their activity as αvβ3 receptor antagonists by the procedure described below, and the buffers, solutions, and reagents used in the procedure are listed following the procedure.
Procedure. Integrin protein αvβ3 (purchased from Chemicon International, Inc., Temecula, Calif., USA) was diluted to a final concentration of 1 μg/mL in coating buffer (2.1). The αvβ3 coating solution was applied to 96-well polystyrene microtiter plate at 100 μL/well. (A total of 10 mL is needed to coat one 96-well plate). The plates were then sealed and allowed to incubate at 4° C. for at least 8 hours. The coating solution was then removed and the plate was washed two times with 300 μL/well of washing solution (2.2). Blocking buffer (2.3) was then added in amounts of 150 μL/well and the plate was incubated at room temperature for 2 hours. The blocking buffer was then removed, and the integrin antagonistic substances (117 μL of 1.25 μM (in H2O)) were added in quadruplicate to column 1 of the twelve well columns of the plate. For example, 117 μL of 1.25 μM 4-[2-(3,4,5,6-tetrahydropyrimidin-2 ylamino)ethyloxy]benzoyl-2-(S)-aminoethylsulfonylamino-β-alanine, the antagonist described by Hood et al. referenced above was added to column 1, rows A-D and 117 μL of 1.25 μM of the antagonist of Example 1 was added to column 1, […]. Binding buffer (2.4) (80 μL) was added to the remaining wells of the plate (column 2-12, rows A-F). A multichannel pipet was used to transfer 37 μL aliquots of the solutions from column 1 to column 2. The solutions were then mixed in the column 2 wells by drawing them up and down in the pipet 15 times. Solutions (37 μL) were then transferred from column 2 to column 3 and mixed by being drawn up and down in the pipet 15 times. The process was repeated across the columns to column 12, and the last 37 μL of solution was discarded. Biotinylated Vitronectin solution (2.5) was then added (20 μL/well, 0.1 μg/well). The final volume was 100 μL total per well, and the concentrations (nM) of analytes in columns 1-12 respectively were as follows: 1000, 316, 100, 31.6, 10.0, 3.16, 1.00, 0.316, 0.100, 0.0316, 0.01, and 0.00316.
The plate was agitated for thorough mixing of the solutions, then covered and incubated at room temperature for 3 hours. The solutions were then discarded and the plate was washed 3 times with 170 μL/well of washing solution (2.2). NeutrAvidin-HRP solution (2.6) was then added (100 μL/well, 0.01 μg/well), cover, and the plate was incubated at room temperature for 30 minutes. The solutions in the wells were then discarded and the plate was washed 3 times with 170 μL/well of washing solution (2.2). Chemiluminescent Substrate solution (2.7) was then added to the plate (100 μL/well), and the luminescence was read using the Wallac Victor 1420 Multilabel Counter (PerkinElmer, Inc., Boston, Mass., USA). A plot of average luminescence vs. concentration was generated using KaleidaGraph (version 3.5) software and the IC50 values were calculated using the following formula: Max−Max*M0^m1/(m2^m1+M0^m1);m1=1;m2=1, where Max is the maximum luminescence observed.
The results are expressed in the table below, both in terms of the 50% inhibitory concentration (IC50) of each test compound and the ratio of 50% inhibitory concentration (IC50) of the test compound to that of the Hood et al. antagonist 4-[2-(3,4,5,6-tetrahydropyrimidin-2-ylamino)ethyloxy]benzoyl-2-(S)-aminoethylsulfonylamino-β-alanine.

T1 sequence (P06756 31-889 limits assumed): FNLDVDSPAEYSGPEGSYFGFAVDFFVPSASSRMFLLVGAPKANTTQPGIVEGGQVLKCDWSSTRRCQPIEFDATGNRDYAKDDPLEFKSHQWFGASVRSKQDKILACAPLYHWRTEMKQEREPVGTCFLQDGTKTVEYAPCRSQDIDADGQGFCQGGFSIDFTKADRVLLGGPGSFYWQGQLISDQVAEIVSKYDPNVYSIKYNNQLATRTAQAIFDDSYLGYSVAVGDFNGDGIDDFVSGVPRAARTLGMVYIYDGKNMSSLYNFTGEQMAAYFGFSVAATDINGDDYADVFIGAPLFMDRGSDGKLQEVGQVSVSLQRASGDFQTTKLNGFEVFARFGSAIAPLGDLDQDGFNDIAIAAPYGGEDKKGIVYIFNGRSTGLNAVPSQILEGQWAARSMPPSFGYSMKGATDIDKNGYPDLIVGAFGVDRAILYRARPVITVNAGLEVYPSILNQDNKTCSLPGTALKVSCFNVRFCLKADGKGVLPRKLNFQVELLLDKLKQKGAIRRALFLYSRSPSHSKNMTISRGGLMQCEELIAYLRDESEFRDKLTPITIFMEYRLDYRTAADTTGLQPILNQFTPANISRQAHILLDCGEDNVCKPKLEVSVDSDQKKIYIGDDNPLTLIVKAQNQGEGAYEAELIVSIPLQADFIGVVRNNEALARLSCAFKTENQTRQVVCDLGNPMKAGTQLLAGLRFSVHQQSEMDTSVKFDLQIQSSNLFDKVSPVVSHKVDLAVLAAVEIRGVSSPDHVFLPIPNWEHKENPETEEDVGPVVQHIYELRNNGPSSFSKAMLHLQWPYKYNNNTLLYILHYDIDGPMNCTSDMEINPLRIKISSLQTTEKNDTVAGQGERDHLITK
T1 sequence (P06756 891-1048 limits assumed): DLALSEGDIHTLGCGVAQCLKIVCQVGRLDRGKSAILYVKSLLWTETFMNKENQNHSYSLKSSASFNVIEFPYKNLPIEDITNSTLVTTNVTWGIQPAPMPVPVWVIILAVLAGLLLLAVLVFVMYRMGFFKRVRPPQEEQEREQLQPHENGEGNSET
T1 sequence (P05106 27-788): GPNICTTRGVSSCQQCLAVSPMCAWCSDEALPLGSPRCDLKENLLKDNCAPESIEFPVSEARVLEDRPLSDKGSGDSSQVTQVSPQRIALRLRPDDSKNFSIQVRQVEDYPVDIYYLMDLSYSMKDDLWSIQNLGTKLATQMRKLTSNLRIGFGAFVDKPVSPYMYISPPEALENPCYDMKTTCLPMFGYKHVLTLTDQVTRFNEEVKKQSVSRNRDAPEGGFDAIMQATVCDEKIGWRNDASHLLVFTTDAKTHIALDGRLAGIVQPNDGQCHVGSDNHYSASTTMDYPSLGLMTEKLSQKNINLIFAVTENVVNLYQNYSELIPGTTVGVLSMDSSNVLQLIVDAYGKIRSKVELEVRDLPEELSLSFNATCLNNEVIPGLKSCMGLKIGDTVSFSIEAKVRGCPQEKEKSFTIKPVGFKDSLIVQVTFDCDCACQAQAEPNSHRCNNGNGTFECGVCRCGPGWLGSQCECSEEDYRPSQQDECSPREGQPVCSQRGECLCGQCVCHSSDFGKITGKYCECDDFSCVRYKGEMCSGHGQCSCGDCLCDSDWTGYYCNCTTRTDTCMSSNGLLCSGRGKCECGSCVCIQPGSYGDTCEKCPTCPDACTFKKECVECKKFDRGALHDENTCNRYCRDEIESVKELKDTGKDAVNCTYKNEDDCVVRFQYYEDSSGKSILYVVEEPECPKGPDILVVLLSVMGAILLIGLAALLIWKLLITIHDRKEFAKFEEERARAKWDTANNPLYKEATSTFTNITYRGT

| Structure (SMILES) | IC50 [nM] | IC50 Ratio Relative to Hood et al. |
| --- | --- | --- |
| CCCCOC(=O)NCC(C)(C)COC(=O)NCCS(=O)(=O)N[C@@H](CNC(=O)c1ccc(OCCNC2=NCCCN2)cc1)C(=O)O [Example 1, 4-[2-(3,4,5,6-Tetrahydropyrimidin-2-ylamino)ethyloxy]benzoyl-2-(S)-[N-(3-butyloxycarbonylamino-neopenta-1-carbamyl)]-aminoethylsulfonylamino-β-alanine] | 0.72 ± 0.08 | 17.3 ± 4.7 |
| CC(C)(CN)COC(=O)NCCS(=O)(=O)N[C@@H](CNC(=O)c1ccc(OCCNC2=NCCCN2)cc1)C(=O)O [Example 2, 4-[2-(3,4,5,6-Tetrahydropyrimidin-2-ylamino)ethyloxy]benzoyl-2-(S)-[N-(3-amino-neopenta-1-carbamyl)]-aminoethylsulfonylamino-β-alanine Hydrochloride] | 2.94 ± 0.19 | 7.0 ± 0.7 |
| CCCCOC(=O)NCCOC(=O)NCCS(=O)(=O)N[C@@H](CNC(=O)c1ccc(OCCNC2=NCCCN2)cc1)C(=O)O [Example 3, 4-[2-(3,4,5,6-Tetrahydropyrimidin-2-ylamino)ethyloxy]benzoyl-2-(S)-[N-(3-butyloxycarbonylamino-ethyl-1-carbamyl)]-aminoethylsulfonylamino-β-alanine] | 1.7 ± 0.2 | 8.8 ± 3.5 |
| NCCOC(=O)NCCS(=O)(=O)N[C@@H](CNC(=O)c1ccc(OCCNC2=NCCCN2)cc1)C(=O)O [Example 4, 4-[2-(3,4,5,6-Tetrahydropyrimidin-2-ylamino)ethyloxy]benzoyl-2-(S)-[N-(3-amino-ethyl-1-carbamyl)]-aminoethylsulfonylamino-β-alanine] | 3.64 ± 0.3 | 4.3 ± 0.6 |
| CCCCOC(=O)NCCCOC(=O)NCCS(=O)(=O)N[C@@H](CNC(=O)c1ccc(OCCNC2=NCCCN2)cc1)C(=O)O [Example 5, 4-[2-(3,4,5,6-Tetrahydropyrimidin-2-ylamino)ethyloxy]benzoyl-2-(S)-[N-(3-butyloxycarbonylamino-propyl-1-carbamyl)]-aminoethylsulfonylamino-β-alanine] | 1.02 ± 0.12 | 11.2 ± 2.4 |
| NCCCOC(=O)NCCS(=O)(=O)N[C@@H](CNC(=O)c1ccc(OCCNC2=NCCCN2)cc1)C(=O)O [Example 6] | 6.68 ± 0.54 | 3.6 ± 0.7 |
| CCCCOC(=O)NCCCCOC(=O)NCCS(=O)(=O)N[C@@H](CNC(=O)c1ccc(OCCNC2=NCCCN2)cc1)C(=O)O [Example 7, 4-[2-(3,4,5,6-Tetrahydropyrimidin-2-ylamino)ethyloxy]benzoyl-2-(S)-[N-(3-butyloxycarbonylamino-butyl-1-carbamyl)]-aminoethylsulfonylamino-β-alanine] | 1.34 ± 0.14 | 10.8 ± 2.7 |
| NCCCCOC(=O)NCCS(=O)(=O)N[C@@H](CNC(=O)c1ccc(OCCNC2=NCCCN2)cc1)C(=O)O [Example 8, 4-[2-(3,4,5,6-Tetrahydropyrimidin-2-ylamino)ethyloxy]benzoyl-2-(S)-[N-(3-amino-butyl-1-carbamyl)]-aminoethylsulfonylamino-β-alanine] | 3.13 ± 0.33 | 1.3 ± 0.5 |
| NCCS(=O)(=O)N[C@@H](CNC(=O)c1ccc(OCCNC2=NCCCN2)cc1)C(=O)O [Hood et al., 4-[2-(3,4,5,6-tetrahydropyrimidin-2-ylamino)ethyloxy]benzoyl-2-(S)-aminoethylsulfonylamino-β-alanine, reference compound] | 14.1 ± 1.4 |  |
